# Laboratory results published in PubChem BioAssay AID2765 (Broad Institute, 2010).
# pEC50: −log10 of the molar value. Calls of active or inactive are those of the source.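 The calls were made as follows: active = half-maximal concentration for the rise in caspase light signal at or below ten times the top tested dose; inconclusive = flat fit between 30% and 70% activity, or unreliable curve fit; inactive = the rest.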
# Test system: MEF A1-2A-BIM cells, caspase 3/7 luminescence, 3 h
# Experiment: inducers of caspase signal in A1-dependent MEFs – cell-based, luminescence, retest, A1 inhibitor project, dose response (AID 2765)
SMILES,EC50,pEC50
Cc1ccc(C)c(NC(=O)CN(C)C(=O)c2ccc(-c3cccc(C(F)(F)F)c3)o2)c1,> 35 µM (inactive),–
Cc1ccc(NC(=O)CCN2CCOCC2)cc1C,> 35 µM (inactive),–
COc1ccc(OC)c2[nH]c(C(=O)N3CCC(C(=O)O)CC3)cc12,> 35 µM (inactive),–
CCc1cc(C(=O)OCC(=O)N2CCC(c3ccccc3)=N2)sc1C,> 35 µM (inactive),–
NS(=O)(=O)c1ccc(S(=O)(=O)c2ccccc2)nc1,> 35 µM (inactive),–
CCN(CC)C(=O)Oc1ccc(Br)c2ccccc12,> 35 µM (inactive),–
CCOCCCNC(=O)C1(O)c2cc(Br)ccc2NC(=O)N1c1ccc(CC)cc1 (centres undefined),> 35 µM (inactive),–
O=[N+]([O-])c1ccc(N2CCCC2)c(F)c1Br,> 35 µM (inactive),–
CC(C)C(OC(=O)c1cc2c(s1)CCCCC2)C(=O)NC(N)=O (centres undefined),> 35 µM (inactive),–
CC(C)c1nnc(NC(=O)COC(=O)/C=C/c2ccc([N+](=O)[O-])cc2)s1,> 35 µM (inactive),–
CCCN1C(=O)C(=O)c2cc(C)ccc21,> 35 µM (inactive),–
CC(c1ccccc1)n1c(CCCO)nc2ccccc21 (centres undefined),> 35 µM (inactive),–
CCCNC(=O)N1[C@H]2CC[C@@H]1C(C(=O)OC)=C(c1c(C)noc1C)C2,> 35 µM (inactive),–
COc1ccc(NC(=O)c2cccc3c2C(=O)c2ccc(-c4ccc(F)cc4OCc4ccccc4)cc2S3(=O)=O)cc1,> 35 µM (inactive),–
S=C(Nc1ccccc1)N1N=C(c2cccs2)CC1c1cccs1 (centres undefined),> 35 µM (inactive),–
CN(C)Cc1ccc(O)c(CCc2ccccc2)n1,> 35 µM (inactive),–
CC1=CC(=O)C(C(C)C)=C/C1=N/OS(=O)(=O)c1ccccc1,–,5.03
NCC1CCC(C(=O)Oc2ccc(CCC(=O)O)cc2)CC1 (centres undefined),> 35 µM (inactive),–
Cc1ccc(N=C2C(=O)Nc3ccc(C)c(Br)c32)cc1,> 35 µM (inactive),–
c1ccc2c(CNc3ccc(CNc4ncn[nH]4)cc3)cccc2c1,> 35 µM (inactive),–
CC(C)(C)C1C/C(=C/c2ccccn2)C(=O)/C(=C/c2ccccn2)C1 (centres undefined),–,5.07
CC(=O)OC[C@]12CC[C@H]3[C@@](C)(CC[C@H]4C(C)(C)CCC[C@]34C)[C@@H]1C[C@H](C1=CC(=O)O[C@H]1OC(C)=O)O2,–,5.49
COc1ccc(C(=O)NCc2cccnc2)cc1Br,> 35 µM (inactive),–
O=C(NCCN1CCN(c2ccccc2)CC1)c1ccc2c(c1)[nH]c(=S)n1c3ccccc3nc21,> 35 µM (inactive),–
Cc1ccc(NC(=S)N(CCCN2CCCC2)Cc2cccn2Cc2ccc(Cl)cc2)cc1Cl,> 35 µM (inactive),–

SMILES,EC50,pEC50
Cc1ccccc1S(=O)(=O)N(CC(O)CN1CCCCC1)c1ccccc1 (centres undefined),> 35 µM (inactive),–
Cc1ccc(-c2nc(NC(=O)c3nn(C)cc3[N+](=O)[O-])sc2C)cc1,–,5.01
COc1ccc(OC)c2sc(N(CCCN(C)C)C(=O)c3ccc(S(=O)(=O)N4CCc5ccccc5C4)cc3)nc12,> 35 µM (inactive),–
CN(Cc1ccc(F)cc1)C(=O)CNC(=O)C1CCCCC1,> 35 µM (inactive),–
CC[C@H]1CN2CCc3cc(OC)c(OC)cc3[C@@H]2C[C@@H]1C[C@H]1NCCc2cc(OC)c(OC)cc21,> 35 µM (inactive),–
Cc1ccc(CCNC(=O)c2cc(-c3ccncc3)nc3ccc(S(=O)(=O)N4CCOCC4)cc23)cc1,> 35 µM (inactive),–
Cn1c(SCc2ccccc2)nc(N)c(N=O)c1=O,> 35 µM (inactive),–
CN(Cc1cnc2nc(N)nc(N)c2n1)c1ccc(C(=O)N[C@@H](CCC(=O)O)C(=O)O)cc1,> 35 µM (inactive),–
CCC(Sc1ncccc1Nc1ccccn1)C(=O)O (centres undefined),> 35 µM (inactive),–
CCOC(=O)C1=NOC(COc2ccccc2C=O)C1 (centres undefined),> 35 µM (inactive),–
O=C(Cc1ccccc1)Oc1cccc(N2C(=O)CCC2=O)c1,> 35 µM (inactive),–
COc1ccccc1CN1CC(C(=O)NCCN2CCNC2=O)CCC1=O (centres undefined),> 35 µM (inactive),–
Cc1cc(=O)n2nc(N3CCCC(C(=O)NCCc4ccc(Cl)cc4)C3)sc2n1 (centres undefined),> 35 µM (inactive),–
N#CCn1nnc(-c2ccc3c(c2)OCO3)n1,> 35 µM (inactive),–
O=C(c1ccccc1)c1n[nH]c(-c2ccccc2)cc1=O,> 35 µM (inactive),–
Cn1ccc(=NC=C(C#N)C#N)c2ccccc21,> 35 µM (inactive),–
CC(C)CC(=O)c1c[nH]c(C(=O)NCc2ccccc2)c1,> 35 µM (inactive),–
O=C(O)CCC(=NNC(=O)c1cccc(S(=O)(=O)N2CCCCC2)c1)c1ccccc1,> 35 µM (inactive),–
Cc1ccc(S(=O)(=O)c2nnn3c2nc(Nc2cccc(C)c2)c2ccccc23)cc1,> 35 µM (inactive),–
CCOc1ccc(NC(=S)NC(=O)/C=C/c2ccc(C)cc2)c([N+](=O)[O-])c1,–,4.50
CCn1c(CNc2ccc(F)cc2)nnc1SCC(=O)Nc1ccccc1OC,> 35 µM (inactive),–
COC(=O)C1SCC2C(=O)N(Cc3ccc(Cl)cc3)CC(=O)N21 (centres undefined),> 35 µM (inactive),–
CCOC(=O)C(=Cc1ccc(OCc2ccc([N+](=O)[O-])cc2)c(OC)c1)C(=O)OCC,> 35 µM (inactive),–
Nc1nc(Cl)nc2c1ncn2[C@H]1C[C@H](O)[C@@H](CO)O1,> 35 µM (inactive),–
